In brackets after ≈: the same amount, converted by molar mass.

The nature of series [1]: Cyclic voltammetry screening (3-electrode beaker cell). In kind it is physicochemical. The following applies: 0.1 M TBAPF6 in acetonitrile; for E^1/2, catholyte (positive) redox event / Ecell^0 (cell voltage) / E^1/2, anolyte (negative) redox event: bipolar compound 5 mM; for E^1/2, catholyte (positive) redox event / E^1/2, anolyte (negative) redox event: vs Ag|10 mM AgNO3; for Redox activity of the bipolar molecule (in words): cyclic voltammogram; for Redox activity of the bipolar molecule (in words) / redox potential, E1/2: 5 mM; for E1/2^0 (half-cell potential, arithmetic average of anode and cathode peaks): 5 mM redox species, Ag|10 mM AgNO3 reference; for E1/2^0 (half-cell potential, arithmetic average of anode and cathode peaks) / redox potential, E1/2: 100 mV/s; for redox potential, E1/2: vs Ag|10 mM AgNO3 in acetonitrile (−0.09 V vs Fc|Fc+).

Series [2] can be described thus: Room temperature solubility in acetonitrile. Format: physicochemical. Conditions: moles per liter of solution; for solubility: organic solvent or mixture, read-out: MeCN solubility.

Consider `COc1ccc(OCc2cccc3ccccc23)cc1` [Entry 2], for which, in series [1], the “E^1/2, catholyte (positive) redox event” value is recorded as “+0.981 V” and the “Redox activity of the bipolar molecule (in words)” value (“Redox activity” for short) is given as “non-redox active molecule”.

A word on the solubility: it is the dissolved amount per volume that the medium holds. As for `COc1ccc(OC)cc1` [p-dimethoxybenzene, reference compound], in series [1], the “E1/2^0 (half-cell potential, arithmetic average of anode and cathode peaks)” value is listed as “+0.967 V vs Ag|Ag^+”; the “redox potential, E1/2” value is listed as “+0.967 V”. Also, in series [2], the solubility worked out at 600 mM (≈ 82.9 mg/mL).

Consider `Cc1cccc2ccccc12` [1-methylnaphthalene, reference compound], for which, in series [1], the “E1/2^0 (half-cell potential, arithmetic average of anode and cathode peaks)” value is −2.909 V vs Ag|Ag^+; the “redox potential, E1/2” value is −2.909 V. For the same compound, the MeCN solubility result in series [2] (acetonitrile solvent) was “miscible”.

Turning to `COc1ccc(OCCc2cccc(-c3ccccc3)c2)cc1` [Entry 3], in series [1], the “Ecell^0 (cell voltage)” value stood at 3.93 V; the “E^1/2, anolyte (negative) redox event” value was −2.976 V; the “E^1/2, catholyte (positive) redox event” value is recorded as “+0.953 V”.

On to `COc1ccc(CCOc2ccc(/C=C/c3ccccc3)cc2)cc1` [Entry 7], for which, in series [1], the “E^1/2, anolyte (negative) redox event” value is −2.665 V and the “Redox activity” value is recorded as “non-redox active molecule”.

In the case of `C(=C\c1ccccc1)/c1ccccc1` [trans-stilbene, reference compound], in series [1], the “E1/2^0 (half-cell potential, arithmetic average of anode and cathode peaks)” value is reported as −2.571 V vs Ag|Ag^+; the “redox potential, E1/2” value is −2.571 V. Also, the solubility in series [2] was 1070 mM (≈ 193 mg/mL).

For `COc1ccc(OCCc2ccccc2-c2ccccc2)cc1` [Entry 4], in series [1], the “Ecell^0 (cell voltage)” value came out at 3.82 V; the “E^1/2, anolyte (negative) redox event” value is on record as −1.217 V; the “E^1/2, catholyte (positive) redox event” value was “+0.934 V”.

On to `c1ccc(-c2ccccc2)cc1` [biphenyl, reference compound], for which, in series [1], the “E1/2^0 (half-cell potential, arithmetic average of anode and cathode peaks)” value was −2.987 V vs Ag|Ag^+; the “redox potential, E1/2” value is given as −2.987 V. For the same compound, in series [2], the solubility was determined as 1730 mM (≈ 267 mg/mL).

Take `COc1ccc(OCc2ccccc2-c2ccccc2)cc1` [Entry 5]: in series [1], the “E^1/2, catholyte (positive) redox event” value is on record as “+0.985 V” and the “Redox activity” value is reported as “non-redox active molecule”.

With `COc1ccc(OCCc2ccc(/C=C/c3ccccc3)cc2)cc1` [Entry 6], in series [1], the “Ecell^0 (cell voltage)” value was 3.73 V; the “E^1/2, anolyte (negative) redox event” value was −2.632 V; the “E^1/2, catholyte (positive) redox event” value was “+1.096 V”.

Consider `COc1ccc(OCCc2cccc3ccccc23)cc1` [Entry 1], for which, in series [1], the “Ecell^0 (cell voltage)” value was found to be 3.82 V; the “E^1/2, anolyte (negative) redox event” value was −2.857 V; the “E^1/2, catholyte (positive) redox event” value is “+0.958 V”.
